pEC50: −log10 of the molar value. Read-outs that look alike come from different tables or passages of the source.
Legend:
HCV genotype 1b replicon = assay: microbe, parasite or virus in culture; assay type: cell-based; conditions: read-out: HCV Replicon EC50
Experimental: Huh-7-derived cell line (Zluc) that harbors an HCV genotype 1b replicon and a luciferase reporter gene was grown in Dulbecco's Modified Eagle Medium (DMEM) supplemented with 10% fetal bovine serum, 2 mM GlutaMAX, 1% MEM nonessential amino acids, 100 IU/mL penicillin, 100 μg/mL streptomycin, and 0.5 mg/mL Geneticin® (G418). For dose response testing the cells were seeded in 96-well plates at 7.5×10^3 cells per well in a volume of 50 μL, and incubated at 37° C./5% CO2. Drug solutions were made up freshly in Huh-7 media as 2× stocks. Ten additional 5-fold dilutions were prepared from these stocks in DMEM without G418. At least three hours after Zluc cells were seeded, drug treatment was initiated by adding 50 μL of drug dilutions to the plates in duplicate. […] Cells were then incubated at 37° C./5% CO2. Alternatively compounds were tested at two concentrations (10 nM and 100 nM). […] For this, media was removed from the plates via gentle tapping. Fifty microliters of ONE-glo luciferase assay reagent was added to each well. […] The EC50 values were calculated from dose response curves from the resulting best-fit equations determined by Microsoft Excel and XLfit 4.1 software.

[1] = Stability in simulated gastric fluid (SGF); assay type: in vitro ADME; conditions: 100 μM, 2 hours at 37° C.
Experimental: Simulated gastric and intestinal fluids containing pepsin and pancreatin respectively were prepared according to the U.S. Pharmacopoeia USP291 procedure (www.pharmacopeia.cn/v29240/usp29nf24s0_ris1s126.html). Test compound (final concentration 100 μM) was incubated in duplicate in the appropriate fluid for 2 hours at 37° C. The samples were quenched with 200 μl cold acetonitrile, vortexed for 30 seconds and then centrifuged at 16,100 g for 10 min. The supernatants were analyzed by HPLC on a C-18 column with UV detection at 252 nm. The time 0 samples were prepared by adding SGF or SIF fluid to the quenching solvent followed by the test compound. Stability of the compound was determined by peak area the test compound after incubation and calculated as percent of the peak area observed at time zero.

[2] = Stability in human liver microsomes (HLM); assay type: in vitro ADME; conditions: 10 μM, 1.0 mg/mL protein, NADPH, 60 min
Experimental: (§1) Stability of Compound 1 and its diastereomer were determined in subcellular fractions (microsomes and S9) of human liver and intestine in duplicate for each matrix. Pooled liver and intestinal microsomal, intestinal and liver S9 proteins (1.0 mg/mL), suspended in incubation buffer (100 mM potassium phosphate, pH 7.4, 5 mM MgCl2, and 0.1 mM EDTA), were preincubated for 5 min at 37° C. with 10 μM of a test compound from a 10 mM stock solution in DMSO (final DMSO concentration was 0.1%); the reaction was initiated by the addition of NADPH (3 mM final concentration). At specific times (0 and 60 min), 0.1 mL samples were taken and the reaction terminated by the addition of 4 volumes of stop solution (acetonitrile with 500 ng/mL carbutamide as an internal standard). The samples were vortexed for 30 sec and then centrifuged at 16,000 g for 10 min. 100 μL of supernatants were transferred to 96 deep-well plates preloaded with 100 μL distilled water and analyzed after mixing by LC-MS/MS. The MS peak area ratio of the test compound versus the internal standard was calculated and percent unchanged test compound over 60 minutes was calculated using this ratio.

[3] = Stability in human liver S9 fraction (HLS9); assay type: in vitro ADME; conditions: 10 μM, 1.0 mg/mL protein, NADPH, 60 min
Experimental: as §1

Huh-7 cells = assay: Release of active metabolite in Huh-7 cells; assay type: in vitro ADME; conditions: intracellular triphosphate, 10 μM test compound
Experimental: Huh-7 cells were plated in 1 mL culture medium (DMEM, containing glucose, L-glutamine and sodium pyruvate, 10% FBS, 100 IU/mL penicillin, 100 μg/mL streptomycin, 2 mM GlutaMAX, 1% MEM non-essential amino acids) at the concentration 0.8, 0.4 and 0.2 million cells per well on 6 well plates for 24, 48 and 72 hr treatment, respectively. Plated cells were incubated overnight at 37° C. in an incubator.
The following morning the test compound was diluted to 20 μM from a stock solution in DMSO in fresh culture medium pre-warmed to 37° C. and 1 mL of the solution/well was added to cells. A final medium volume per well was 2.0 mL, the test compound concentration in well was 10 μM and final DMSO concentration was 0.1%.
After 24, 48 or 72 hr, the medium was carefully removed and cell monolayers were washed twice with 2 mL ice-cold PBS per well. Following the last wash, all PBS was carefully removed and 1.0 mL of extraction solution (ice-cold 70% methanol) added. The plate was tightly covered with Parafilm, plastic plate cover and Parafilm again and an intracellular content was extracted at −20° C. for 24 hr.
After 24 hr extracts were transferred into polypropylene microfuge tubes and dry on a refrigerated centrivap concentrator. Dry residues were reconstituted in 250 μL of HPLC-grade water and centrifuged at 16,000×g for 10 min. […]

mouse hepatocytes = assay: Release of active metabolite in mouse hepatocytes; assay type: in vitro ADME; conditions: 10 μM test compound
Experimental: Plates of fresh human and mouse hepatocytes were obtained on ice. The medium was removed and replaced with hepatocyte culture medium (William's E supplemented with penicillin-streptomycin, 1% L-glutamine, 1% insulin-transferrin-selenium and 0.1 μM Dexamethasone (Invitrogen) or with Invitro GRO HI medium complemented with Torpedo antibiotics (Celsis)). Cells were left overnight in an incubator at 37° C. to acclimatize to culture and the medium.
Hepatocyte incubations were conducted at a final volume of 0.5 mL hepatocyte culture medium/well (0.8 million cells/well for human and 0.5 million cells/well for mouse; 12 well plate no overlay, collagen coat). Culture medium from overnight incubation of cells was removed and replaced with fresh medium, pre-warmed to 37° C., containing 10 μM of the test compound from a stock solution in DMSO (final DMSO concentration was 0.1%). At each specific time point, incubation medium was removed and cell monolayers were carefully washed two times with ice-cold PBS. Following the last wash, all PBS was carefully removed and 1.0 mL of extraction solution (ice-cold 70% methanol/30% water) added. Cells were scraped off and suspended in the extraction solution, transferred to 2 mL polypropylene microfuge tubes and intracellular contents extracted overnight at −20° C.
After the overnight treatment the cellular extracts were prepared by centrifugation at 16,000×g for 10 min to remove cellular debris. The remaining sample was then dried using a refrigerated centrivap concentrator. Dry extracts were reconstituted in 1000 μL of HPLC-grade water and centrifuged at 16,000×g for 10 min. Aliquots (100 μL each) of the supernatant were transferred into a 96 well plate and 2′-C-methyl-adenosine 5′-triphosphate, trisodium salt (4 ng/mL final concentration) was added as the internal standard (1S) for LC-MS/MS analysis.
The incubation time points were 6, 24 and 48 hours for human hepatocytes and 1, 4, 8, 12 and 24 hours for mouse hepatocytes.

Q: With `CCOC(=O)OC(C)OP(=O)(N[C@@H](C)C(=O)OC(C)C)OC[C@H]1O[C@@H](n2cnc3c(OC)nc(N)nc32)[C@](C)(F)[C@@H]1O` (single isomer, unassigned) [Compound 14] as the compound, how does the pEC50 (HCV genotype 1b replicon; Hepatitis C virus, 72 h) read?
A: The pEC50 was over 7.00.

Q: And the “Percent Remaining, SGF” value [1]?
A: The value was 91%.

Q: And the “Percent Remaining, HLM (1 hr)” value [2]?
A: The value was 0%.

Q: And the “Percent Remaining, HLS9 (1 hr)” value [3]?
A: The value was 0.7%.

Q: And the “Huh-7 TP Cmax” value (Huh-7 cells)?
A: Its value is 410 pmol/mill cells.

Q: And the “MsH AUC” value (mouse hepatocytes)?
A: The value was 8704 pmol.hr/mill cells.

Q: What about the “MsH Cmax” value (mouse hepatocytes) of the same compound?
A: Its value is 7534 pmol/mill cells.

Q: With `CCOC(=O)OC(C)OP(=O)(N[C@@H](C)C(=O)OC(C)C)OC[C@H]1O[C@@H](n2cnc3c(OC)nc(N)nc32)[C@](C)(F)[C@@H]1O` (single isomer, unassigned) [Compound 15] as the compound, how does the pEC50 (HCV genotype 1b replicon; Zluc cells, HCV genotype 1b replicon, luciferase, 72 hours of incubation) read?
A: Its pEC50 is over 7.00.

Q: What about the “Percent Remaining, SGF” value [1] of the same compound?
A: The value was 97%.

Q: And the “Percent Remaining, HLM (1 hr)” value [2]?
A: Its value is 0%.

Q: And the “Percent Remaining, HLS9 (1 hr)” value [3]?
A: The value was 0%.

Q: What about the “Huh-7 TP Cmax” value (Huh-7 cells) of the same compound?
A: Its value is 198 pmol/mill cells.

Q: And the “MsH AUC” value (mouse hepatocytes)?
A: The value was 218 pmol.hr/mill cells.

Q: And the “MsH Cmax” value (mouse hepatocytes)?
A: The value was 216 pmol/mill cells.
